How the values were obtained:
[1] = tested on: advanced metastatic breast cancer; settings: monotherapy or combined with chemotherapies; ref Ebos & Kerbel, 2011; Mackey et al, 2012; cited from earlier work
From the text: These clinical results were recently replicated in a preclinical model of postsurgical advanced MBC (Guerin et al, [2013]). As discussed previously (Guerin et al, [2013]), primary and secondary tumors may have divergent responses to anti-angiogenic ...

[2] = tested on: SN12luc lung metastases in YFP-SCID mice; experiment: experimental SN12luc lung metastasis model (IV); assay type: in vivo, human SN12luc cells in YFP-SCID mice; settings: VT 250 ng/2 days or 400 ng/2 days; Fig3E–G; 50DPI imaging
From the text: Figure 3 Vasculotide has no effect on experimental liver metastases from a colon cancer cell line (HT29^luc), nor on experimental lung metastases from a renal cancer cell line (SN12^luc) • A–D An experiment where HT29^luc tumor cells were implanted intravenously into YFP-SCID mice. (A) Kaplan–Meier survival analysis. (B) Quantification of total metastatic burden in the liver and lymphatics, at 35 days post-implantation (DPI), from whole-body bioluminescent imaging (C). (D) Photograph of typical liver metastases. • E–G An experiment where SN12^luc tumor cells were implanted intravenously into YFP-SCID mice. (E) Kaplan–Meier survival analysis. (F) Quantification of total metastatic burden at 50DPI, mostly within the lungs, from whole-body bioluminescent imaging (G). […]
For in vivo BI: Mice were injected intraperitoneally with 150mg/kg luciferin (Promega) 10 minutes prior to and anesthetized with isofluorane just before luminescent pseudocolor imaging (uniform settings: CCD camera locked at -105 °C, exposure=60s, f/1, subject size=1.5cm, bin=8, FOV=23.2cm, full image correction) using the IVIS 200 Imaging System (Caliper/PerkinElmer). Using the Living Image software (v2.50.1, Xenogen), weekly images were analyzed under uniform color range on grayscale photographic overlay. […]

Tie2 = settings: PEGylated VT, earlier reports; ref not printed at the statement; cited from earlier work
From the text: (§1) For therapeutic use, recombinant variants or mimetics of multimeric Ang1 have been engineered, including Ang1* and Ang-F1-Fc-F1/Bow-Ang1 (Davis et al, [2003]; Daly et al, [2013]), MAT-Ang1 and COMP-Ang1 (Cho et al, [2004]; Koh, [2013]). […] The development of VT was inspired by a 2004 paper, where several heptapeptides—with no sequence homology to Ang1—were identified to have Tie2-binding potential through an ...

[3] = tested on: in vivo model of abdominal sepsis; settings: ref Kumpers et al, 2011; cited from earlier work
From the text: as §1

[4] = tested on: lung vascular hyperpermeability in endotoxemic mice; settings: ref David et al, 2011; cited from earlier work
From the text: as §1

[5] = tested on: mouse model of skin toxicity from cancer radiotherapy; settings: ref Korpela et al, 2014; cited from earlier work
From the text: as §1

Row | Compound | phase III clinical trial outcome [1] | lung metastases response [2] | Tie2 phosphorylation (Tie2) | intraperitoneal leukocyte influx [3] | inflammatory induction of lung vascular hyperpermeability [4] | wound healing [5]
1 | CCN(CC)CCNC(=O)c1c(C)[nH]c(/C=C2\C(=O)Nc3ccc(F)cc32)c1C [sunitinib, reference compound] | repeatedly failed in multiple phase III clinical trials | – | – | – | – | –
2 | CHHHRHSF [Vasculotide, 4-armed maleimide-functionalized polyethylene glycol (PEG) backbone to link together four cysteine-capped T7 peptides, that is, CHHHRHSF] | – | did not respond to VT treatment | reportedly activates Tie2 phosphorylation | reduced intraperitoneal leukocyte influx | prevented inflammatory induction of lung vascular hyperpermeability | promoted wound healing
